Data set [1] relates to Mus musculus. Nature of the data set: Neurotoxicity in BALB/c mouse at 100 mg/kg, ip after 0.5 to 4 hrs by rotarod test. Also on record: dose 100 mg/kg, route intraperitoneal. In kind it is toxicity, organism-based. Particulars: in vivo.
The test system of data set [2] is Mus musculus. Nature of the data set: Anticonvulsant activity in BALB/c mouse assessed as protection against maximal electroshock-induced seizure at 100 mg/kg, ip after 0.5 to 4 hrs. The arrangement: dose 100 mg/kg. In kind it is functional, organism-based.
Data set [3] concerns Mus musculus. The data set can be described thus: Neurotoxicity in BALB/c mouse at 300 mg/kg, ip after 0.5 to 4 hrs by rotarod test. Also on record: dose 300 mg/kg, route intraperitoneal. In kind it is toxicity, organism-based. Particulars: in vivo. For orientation: Falling from the rotarod earlier than controls is read as motor impairment.
The species named for data set [4] is Mus musculus. Nature of the data set: Protective index, ratio of TD50 for BALB/c mouse by rotarod test to ED50 for BALB/c mouse by maximal electroshock seizure test. In kind it is functional.
Data set [5] can be described thus: Neurotoxicity in ip dosed BALB/c mouse after 30 mins by rotarod test. In kind it is toxicity, organism-based. To be noted: in vivo.
Data set [6] deals with Mus musculus. The data set can be described thus: Anticonvulsant activity in ip dosed BALB/c mouse assessed as protection against maximal electroshock-induced seizure after 30 mins. In kind it is functional. To be noted: 0.5 h. In general terms: The maximal electroshock test induces tonic seizures with an electrical stimulus.
Data set [7] concerns Mus musculus. The data set can be described thus: Anticonvulsant activity in BALB/c mouse assessed as protection against maximal electroshock-induced seizure at 300 mg/kg, ip after 0.5 to 4 hrs. In kind it is functional, organism-based. Also on record: dose 300 mg/kg.

Calls of active or inactive are those of the source. The rule behind the calls is not given here. Bounds are passed on as bounds.

Regarding `O=C(CN1C(=O)C(=O)c2ccc(Br)cc21)Nc1ccccc1`, the Activity entry in the data set with Mus musculus [1] and with Mus musculus [3] was “Non-toxic” each time. The outcome with Mus musculus [2] was inactive.

Take `O=C(CN1C(=O)C(=O)c2ccccc21)Nc1ccccc1`: the “Ratio TD50/ED50” value in the data set listed under Mus musculus [4] is listed as above 10.6. In data set [5], this compound registered a TD50 at 0.5 h above 1000 mg/kg. The Activity entry in the data set on Mus musculus [1] and in the data set with Mus musculus [3] was “Non-toxic” each time. Also, in the data set on Mus musculus [6], the ED50 was found to be 94.7 mg/kg. The result in the data set on Mus musculus [2] was Active.

For the compound `O=C(CN1C(=O)C(=O)c2cc(Cl)ccc21)Nc1ccccc1`, the “Ratio TD50/ED50” value in the data set filed under Mus musculus [4] is above 7.3. The same compound registered a TD50 at 0.5 h in data set [5] above 800 mg/kg. Also, the Activity entry in the data set on Mus musculus [1] and in the data set on Mus musculus [3] was “Non-toxic” each time. In the data set on Mus musculus [6], the ED50 came out at 110 mg/kg. Besides, the result in the data set on Mus musculus [2] was Active.

As for `O=C(CN1C(=O)C(=O)c2cccc([N+](=O)[O-])c21)Nc1ccccc1`, the Activity entry with Mus musculus [1] and with Mus musculus [3] was “Non-toxic” each time. Besides, the outcome in the data set on Mus musculus [2] was Active.

With `O=C(CN1C(=O)C(=O)c2cc(Br)cc(Br)c21)Nc1ccccc1`, the Activity entry in the data set on Mus musculus [1] and in the data set on Mus musculus [3] was “Non-toxic” in each case. Further, the result in the data set on Mus musculus [7] was Active.

On to `Cc1cccc2c1N(CC(=O)Nc1ccccc1)C(=O)C2=O`, for which, in the data set filed under Mus musculus [4], the “Ratio TD50/ED50” value is above 8.8. This compound yielded a TD50 at 0.5 h in data set [5] above 1000 mg/kg. The Activity result in the data set on Mus musculus [1] and with Mus musculus [3] was “Non-toxic” in each case. Further, in the data set with Mus musculus [6], the ED50 worked out at 114 mg/kg. Besides, in the data set with Mus musculus [2], the outcome was Active.

As to `O=C(CN1C(=O)C(=O)c2cc(Br)ccc21)Nc1ccccc1`, the Activity result in the data set with Mus musculus [1] and with Mus musculus [3] was “Non-toxic” each time. The result with Mus musculus [2] was Active.

`Cc1ccc2c(c1)C(=O)C(=O)N2CC(=O)Nc1ccccc1`: the “Ratio TD50/ED50” value in the data set filed under Mus musculus [4] is given as above 11. Also, the TD50 at 0.5 h in data set [5] was above 1000 mg/kg. Further, the Activity result in the data set with Mus musculus [1] and with Mus musculus [3] was “Non-toxic” throughout. Besides, in the data set with Mus musculus [6], the ED50 is 91.3 mg/kg. For the same compound, in the data set with Mus musculus [2], the outcome was Active.

Consider `CCC1(c2ccccc2)C(=O)NC(=O)NC1=O` [PHENOBARBITAL], for which the TD50 at 0.5 h in data set [5] was above 69 mg/kg. For the same compound, in the data set with Mus musculus [6], the ED50 is 21.8 mg/kg.

For `O=C(CN1C(=O)C(=O)c2ccc(Cl)cc21)Nc1ccccc1`, the Activity entry in the data set with Mus musculus [1] and in the data set with Mus musculus [3] was “Non-toxic” each time. In addition, in the data set with Mus musculus [2], the result was inactive.

In the case of `O=C(CN1C(=O)C(=O)c2cccc(Br)c21)Nc1ccccc1`, the Activity result with Mus musculus [1] and in the data set on Mus musculus [3] was “Non-toxic” throughout. The result in the data set on Mus musculus [2] was inactive.

Turning to `O=C(CN1C(=O)C(=O)c2cccc(Cl)c21)Nc1ccccc1`, the Activity entry in the data set with Mus musculus [1] and in the data set with Mus musculus [3] was “Non-toxic” each time. In addition, the result in the data set on Mus musculus [2] was Active.

In the case of `O=C(CN1C(=O)C(=O)c2ccc(F)cc21)Nc1ccccc1`, the Activity result in the data set on Mus musculus [1] and in the data set with Mus musculus [3] was “Non-toxic” in each case. In the data set on Mus musculus [2], the outcome was inactive.

`NC(=O)N1c2ccccc2C=Cc2ccccc21` [CARBAMAZEPINE]: the TD50 at 0.5 h in data set [5] is above 71.6 mg/kg. Moreover, in the data set with Mus musculus [6], the ED50 is 8.8 mg/kg.

For the compound `Cc1ccc2c(c1)N(CC(=O)Nc1ccccc1)C(=O)C2=O`, in the data set listed under Mus musculus [4], the “Ratio TD50/ED50” value is listed as above 7.3. Further, the TD50 at 0.5 h in data set [5] was above 1000 mg/kg. For the same compound, the Activity entry in the data set with Mus musculus [1] and in the data set with Mus musculus [3] was “Non-toxic” throughout. Further, the median effective dose (ED50) with Mus musculus [6] was determined as 136 mg/kg. Besides, the result in the data set with Mus musculus [2] was Active.

In the case of `O=C(CN1C(=O)C(=O)c2cc(F)ccc21)Nc1ccccc1`, the “Ratio TD50/ED50” value in the data set filed under Mus musculus [4] is recorded as above 9.1. This compound gave a TD50 at 0.5 h in data set [5] above 800 mg/kg. The Activity entry with Mus musculus [1] and in the data set on Mus musculus [3] was “Non-toxic” each time. Moreover, the ED50 with Mus musculus [6] amounted to 88 mg/kg. Besides, the result with Mus musculus [2] was Active.

Regarding `O=C1Nc2ccccc2C1=O` [ISATIN], the Activity result with Mus musculus [1] and with Mus musculus [3] was “Non-toxic” throughout. For the same compound, the outcome in the data set on Mus musculus [7] was Active.

What is called TD50 is the dose at which the toxic effect under study appears in half of the subjects. A lower TD50 goes with greater toxicity. What is called ED50 is the dose that gives a 50% effect, or the effect in half of the subjects.
